# Results from patent US11370763B2, “Compounds and compositions for treating conditions associated with NLRP activity” (Novartis AG, priority 2017, dated 2022).
# Tested on: IL-1β production in PMA-differentiated THP-1 cells
# Experiment: IL-1β production in PMA-differentiated THP-1 cells stimulated with gramicidin (hTHP-1 assay containing 2% fetal bovine serum; Procedures 1-3)
# Assay type: cell-based, human
# Details: Homo sapiens, THP-1, hTHP-1 assay containing 2% fetal bovine serum; class symbols; read-out: hTHP-1 IC50 (Average IC50 of compounds in hTHP-1 assay)
# Procedure, shortened: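 THP-1 cells differentiated with PMA (20 ng/ml, 16-18 h), replated in 2% FBS RPMI (50,000 cells/well), preincubated 1 h with compound (top final 100 μM, 3-fold steps, 0.37% DMSO), then stimulated 2 h with gramicidin (5 μM). Supernatant IL-1β measured by HTRF.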
row,IC50 [µM],SMILES
1,0.04 to 0.2,"CC(C)c1cc2c(c(C(C)C)c1CC(=O)N=S(N)(=O)c1cc(C(C)(C)O)cs1)COC2 (stereo not shown) [Example 220, N-(amino(4-(2-hydroxypropan-2-yl)thiophen-2-yl)(oxo)-λ^6-sulfaneylidene)-2-(4,6-diisopropyl-1,3-dihydroisobenzofuran-5-yl)acetamide]"
2,5 to 30,"CC(C)c1cc2c(c(C(C)C)c1CC(=O)N=S(N)(=O)c1ccn(C(C)C)n1)COC2 (stereo not shown) [Example 221, N-(amino(1-isopropyl-1H-pyrazol-3-yl)(oxo)-λ^6-sulfaneylidene)-2-(4,6-diisopropyl-1,3-dihydroisobenzofuran-5-yl)acetamide]"
3,0.2 to 1,"CC(C)c1cc(C#N)c(F)c(C(C)C)c1CC(=O)N=S(N)(=O)c1ncc(C(C)(C)O)s1 (stereo not shown) [compound 13, 2-(4-cyano-3-fluoro-2,6-diisopropylphenyl)-N-(5-(2-hydroxypropan-2-yl)thiazol-2-ylsulfonimidoyl)acetamide]"
4,5 to 30,"COc1ccc(CNS(=O)(=NC(=O)Cc2c(C(C)C)cc(F)cc2C(C)C)c2ncc(C(C)(C)O)s2)cc1 (stereo not shown) [compound 41, 2-(4-fluoro-2,6-diisopropylphenyl)-N-(5-(2-hydroxypropan-2-yl)-N-(4-methoxybenzyl)thiazole-2-sulfonimidoyl)acetamide]"
